Bounds are passed on as bounds.

The target in the assay is T1, Cholecystokinin receptor type A (Cavia porcellus, UniProt Q63931).
T1 sequence (Q63931 whole entry): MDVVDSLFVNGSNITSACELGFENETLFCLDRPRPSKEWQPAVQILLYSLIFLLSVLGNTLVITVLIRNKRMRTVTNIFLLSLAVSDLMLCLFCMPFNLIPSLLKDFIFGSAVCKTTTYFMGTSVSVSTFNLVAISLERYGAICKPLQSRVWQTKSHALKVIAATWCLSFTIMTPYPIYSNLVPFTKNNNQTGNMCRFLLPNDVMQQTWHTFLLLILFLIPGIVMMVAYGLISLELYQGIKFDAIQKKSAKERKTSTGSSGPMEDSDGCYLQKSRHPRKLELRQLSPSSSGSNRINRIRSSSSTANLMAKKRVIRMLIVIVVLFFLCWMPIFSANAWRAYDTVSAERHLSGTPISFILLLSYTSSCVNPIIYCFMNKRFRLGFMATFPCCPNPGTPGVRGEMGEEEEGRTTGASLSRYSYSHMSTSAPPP
Put plainly: Inhibitory activity against cholecystokinin-A (CCK-A) receptor in pancreas of guinea pig.
Take `Cc1cccc(NC(=O)N[C@@H]2C[C@H](c3ccccc3)C[C@H](c3cccc(C)c3)N(CC(=O)NC(C)(C)C)C2=O)c1`: the half-inhibitory concentration (IC50) stood at 1.6 nM. This lies in the single-digit nanomolar range.

The molecule `Cc1cccc(NC(=O)N[C@@H]2C[C@H](c3cccc(C)c3)C[C@H](c3ccccc3)N(CC(=O)NC(C)(C)C)C2=O)c1` registered an IC50 of 1.3 nM.

For `Cc1cccc(NC(=O)N[C@@H]2C[C@H](c3ccccc3C)C[C@H](c3ccccc3)N(CC(=O)Nc3ccc(Cl)cc3)C2=O)c1`, the half-inhibitory concentration (IC50) is more than 10 nM.

For `Cc1cccc(NC(=O)N[C@@H]2C[C@H](c3ccccc3C)C[C@H](c3ccccc3)N(CC(=O)Nc3ccccc3C)C2=O)c1`, the half-maximal inhibitory concentration (IC50) was 1.1 nM. In other words, the single-digit nanomolar range.

Consider `Cc1ccc(NC(=O)CN2C(=O)[C@H](NC(=O)Nc3cccc(C)c3)C[C@H](c3ccccc3C)C[C@@H]2c2ccccc2)cc1`, for which the half-inhibitory concentration (IC50) is more than 10 nM.

`Cc1ccc([C@@H]2C[C@H](c3ccccc3)N(CC(=O)NC(C)(C)C)C(=O)[C@H](NC(=O)Nc3cccc(C)c3)C2)cc1` showed a concentration for half-maximal inhibition (IC50) of 1.1 nM. That is a single-digit nanomolar value.

In turn, `Cc1cccc(NC(=O)N[C@@H]2C[C@H](c3ccccc3C)C[C@H](c3ccccc3)N(CC(=O)NC(C)C)C2=O)c1` registered an IC50 of 560 nM.

In turn, `Cc1ccccc1[C@@H]1C[C@H](c2ccccc2)N(CC(=O)NC(C)(C)C)C(=O)[C@H](NC(=O)Nc2cccc(C(F)(F)F)c2)C1` registered a half-maximal inhibitory concentration (IC50) of 2500 nM.

Take `Cc1cccc(NC(=O)N[C@H]2C[C@H](c3ccccc3)C[C@H](c3ccccc3)N(CC(=O)NC(C)(C)C)C2=O)c1`: the IC50 was 10 nM.

Take `Cc1ccccc1[C@@H]1C[C@H](c2ccccc2)N(CC(=O)NC(C)(C)C)C(=O)[C@H](NC(=O)Nc2cccc([N+](=O)[O-])c2)C1`: the IC50 was more than 10 nM.

`Cc1cccc(NC(=O)N[C@@H]2C[C@H](c3ccccc3)C[C@H](c3cccc(F)c3)N(CC(=O)NC(C)(C)C)C2=O)c1` returned a concentration for half-maximal inhibition (IC50) of 1 nM.

`Cc1cccc(NC(=O)N[C@@H]2C[C@H](c3ccccc3C)C[C@H](c3ccccc3)N(CC(=O)Nc3ccccc3Cl)C2=O)c1` showed an IC50 of 1.1 nM.

`Cc1cccc(NC(=O)N[C@@H]2C[C@H](c3ccccc3C)C[C@H](c3ccccc3)N(CC(=O)NC(C(C)(C)C)C(C)(C)C)C2=O)c1` returned an IC50 of more than 10 nM.

On to `CCc1cccc(NC(=O)N[C@@H]2C[C@H](c3ccccc3C)C[C@H](c3ccccc3)N(CC(=O)NC3(C)CCCCC3)C2=O)c1`, for which the concentration for half-maximal inhibition (IC50) was more than 10 nM.

`Cc1ccccc1[C@@H]1C[C@H](c2ccccc2)N(CC(=O)NC(C)(C)C)C(=O)[C@H](NC(=O)Nc2cccc(F)c2)C1` returned a half-inhibitory concentration (IC50) of 1.8 nM. That is a single-digit nanomolar value.

In turn, `Cc1cccc(NC(=O)N[C@@H]2C[C@H](c3ccccc3)C[C@H](c3ccccc3)N(CC(=O)NC(C)(C)C)C2=O)c1` returned an IC50 of 823 nM.

The molecule `COc1ccc(NC(=O)N[C@@H]2C[C@H](c3ccccc3C)C[C@H](c3ccccc3)N(CC(=O)NC(C)(C)C)C2=O)cc1` came in with an IC50 of 2.2 nM.

`Cc1cccc(NC(=O)N[C@@H]2C[C@H](c3ccccc3C)C[C@H](c3ccccc3)N(CC(=O)NC3(C)CCCCC3)C2=O)c1`: the midpoint of inhibition, the IC50, lay at 4.4 nM.

`Cc1cccc(NC(=O)N[C@@H]2C[C@H](c3ccccc3)C[C@H](c3ccc(F)cc3)N(CC(=O)NC(C)(C)C)C2=O)c1` returned a concentration for half-maximal inhibition (IC50) of 2.8 nM. Compared with the last molecule, the IC50 is about 1.6-fold lower.

In turn, `Cc1cccc(NC(=O)N[C@@H]2C[C@H](c3ccccc3C)C[C@H](c3ccccc3)N(CC(=O)Nc3cccc(Cl)c3)C2=O)c1` had a half-maximal inhibitory concentration (IC50) of more than 10 nM.

Molecule `Cc1cccc(NC(=O)N[C@@H]2C[C@H](c3ccc(F)cc3)C[C@H](c3ccccc3)N(CC(=O)NC(C)(C)C)C2=O)c1` came in with an IC50 of 700 nM.

The molecule `Cc1ccc([C@H]2C[C@@H](c3ccccc3)C[C@@H](NC(=O)Nc3cccc(C)c3)C(=O)N2CC(=O)NC(C)(C)C)cc1` registered a concentration for half-maximal inhibition (IC50) of 970 nM.

Regarding `CCc1ccccc1[C@@H]1C[C@H](c2ccccc2)N(CC(=O)NC(C)(C)C)C(=O)[C@H](NC(=O)Nc2cccc(C)c2)C1`, the IC50 worked out at 810 nM.

`COc1ccccc1[C@@H]1C[C@H](c2ccccc2)N(CC(=O)NC(C)(C)C)C(=O)[C@H](NC(=O)Nc2cccc(C)c2)C1`: the midpoint of inhibition, the IC50, lay at 750 nM.

As for `Cc1ccccc1[C@@H]1C[C@H](c2ccccc2)N(CC(=O)NC(C)(C)C)C(=O)[C@H](NC(=O)Nc2ccc(Cl)cc2)C1`, the IC50 was more than 10 nM.

`Cc1cccc(NC(=O)N[C@@H]2C[C@H](c3ccccc3C)C[C@H](c3ccccc3)N(CC(=O)NC(C)(C)C)C2=O)c1` (stereo in doubt; 10i): the midpoint of inhibition, the IC50, lay at 580 nM.

In the case of `Cc1cccc(NC(=O)N[C@@H]2C[C@H](c3ccccc3C)C[C@H](c3ccccc3)N(CC(=O)NC(C)(C)C)C2=O)c1` (stereo in doubt; (+)-10i), the concentration for half-maximal inhibition (IC50) stood at 610 nM.

In the case of `Cc1cccc(NC(=O)N[C@@H]2C[C@H](c3ccccc3C)C[C@H](c3ccccc3)N(CC(=O)NC(C)(C)C)C2=O)c1` (stereo in doubt; (-)-10i), the IC50 was determined as 930 nM.

These data come from ChEMBL document CHEMBL1151044, “5,7-Diphenyl-3-ureidohexahydroazepin-2-ones as Cholecystokinin-B receptor ligands” (Bioorg Med Chem Lett, 1994).
